# Test results as given in patent publication US12344879B2, “Transgenic bacteria with expanded amino acid usage and nucleic acid molecules for use in the same” (BOARD OF REGENTS, THE UNIVERSITY OF TEXAS SYSTEM, priority 2015, dated 2025).
# Several values for one entry are separate records, joined by “and”; a condition that tells them apart may be missing. Equal values may be shown once.
# Test system: E. coli dihydrofolate reductase (DHFR) position 39
# Test: Selenocysteine incorporation into DHFR P39X by intact mass spectrometry
# Set-up: species or system E. coli RTΔA.2
# Details: for serine incorporation in DHFR: mass spectrometry; for selenocysteine incorporation efficiency in DHFR: peak areas of the mass spectrum
# From the text: To further enhance the efficiency of selenocysteine incorporation, a number of steps were taken to improve the levels of Sec-tRNA^Sec relative to Ser-tRNA^Sec, including increasing the level of SelA, decreasing the gene dose of tRNA^SecUx, and co-expressing a phosphoseryl-tRNA^Sec kinase (see Example 2 below). […] In order to further validate selenocysteine incorporation, the Pseudomonas aeruginosa metalloprotein azurin was also expressed with its essential cysteine (C112) replaced by selenocysteine and the human selenoprotein cellular glutathione peroxidase (GPx-1) (FIGS. 6a-6e and 8a-8b). For azurin, this chemical change had previously proven possible only through expressed protein ligation,^22 the essential cysteine could now be biologically replaced with selenocysteine with good efficiency as measured by mass spectrometry of the intact protein.
# RTΔA.2 transformants containing pDHFR-P39X-AU and pRSF-eSelAK were cultured ON in LB medium containing 100 μg·mL^−1 ampicillin, 50 μg·mL^−1 kanamycin and 1 μM Na2SeO3. Overnight cultures were diluted 1/500 in a final volume of 2 L LB medium containing 50 μg·mL^−1 ampicillin, 25 μg·mL^−1 kanamycin and 5 μM Na2SeO3 and incubated with agitation for 24 hours at 37° C. Cells were harvested by centrifugation at 8000×g for 10 min and resuspended in 20 mL of wash buffer (100 mM Tris, 150 mM NaCl, 1 mM EDTA at pH 8.0) with protease inhibitor cocktail (cOmplete, mini EDTA free, Roche) and lysozyme at 1 mg·mL^−1. Following a 20 min incubation at 4° C. cells were lysed by sonication (Model 500, Fisher Scientific) and clarified by three times by centrifugation at 35000×g for 30 min. Lysate was passed through a 0.2 µm filter and seleno-DHFR recovered using Strep-Tactin affinity chromatography following the manufacturer's instructions (GE Healthcare). Eluate was concentrated to 3 mL and dialyzed against 50 mM NH4Ac pH 6.5 prior to the isolation of seleno-DHFR by size exclusion FPLC (ÄKTA, GE Healthcare). Seleno-DHFR was produced using tRNA^SecUx with a yield of 68 μg·L^−1 and 100% incorporation efficiency. Seleno-DHFR was produced using tRNA^UTu with a yield of 131 μg·L^−1 and 38.1% incorporation efficiency. DHFR containing serine at position 39 was produced with a yield of 225 μg·L^−1.
# Intact protein samples were analyzed using methods described previously (Ellefson et al., 2014). Azurin, DHFR and GPx-1 samples were buffer exchanged into LC-MS grade water using 10 kDa molecular weight cutoff filters. […] UVPD mass spectra were also deconvoluted using Xtract and then analyzed using ProsightPC 3.0. […] Incorporation efficiencies were calculated by dividing the area of the modified protein peak by the summed areas of the unmodified protein peak and the modified protein peak. […]
Substance,serine incorporation in DHFR,selenocysteine incorporation efficiency in DHFR
tRNA^SecUx: Evolved E. coli tRNA^Sec variant with the G7-C66:U49-G65:C50-U64 antideterminant sequence and CUA anticodon,no detectable background,~100%
tRNA^UTu (GGAAGATGTGGCCGAGCGGTTGAAGGCACCGGT; expressed or natural sequence),62%,38% and 38.1%
